“Also recorded” adds a separate entry of the source. Where two headings read alike, the source gives them in different places.
Assays:
hUNG [1] = biological target: T1, hUNG (Homo sapiens, UniProt P13051); test: Uracil–DNA glycosylase assay, biochemical screening against hUNG (cleavage of 32P-labeled ssDNA 20-mer with dU); conditions: for hUNG inhibition, dose response: inhibitors at 10, 100 and 1000 μM; for IC50: conditions used for screening: 50 nM substrate, 20 pM enzyme, 10 min, 37 °C
T1 construct: truncated catalytically active human uracil–DNA glycosylase (hUNG ΔN84); His6 (N); linker with thrombin cleavage site (pET-15b) (N); made in house; host or cells: E. coli BL21(DE3), pET-15b
Procedure: As hUNG excises Ura from single- and double-stranded DNA with similar efficiency, we have used the cleavage of a 20-mer single-stranded DNA oligonucleotide containing a dU residue in position 8 (Section 4.1) to assay hUNG activity in the presence of inhibitors. Twenty-three identified compounds were tested at 10, 100, and 1000 μM (Figure 2a). […] However, even the best inhibitor, 4B, had IC50 between 100 and 1000 μM under the conditions used for screening.
Figure 2 Biochemical screening of the inhibitors identified by molecular docking. (a) hUNG activity in the presence of the inhibitors at 10 μM (black bars), 100 μM (light gray bars), or 1000 μM (dark gray bars). The activity is normalized for that in the absence of the inhibitor. Means and SD of three independent experiments are shown; (b) Structures of the compounds 2D, 3A, 3B, 4B, 4E, 4F, and 4G.
The identified compounds were purchased from Vitas-M Laboratory (Vitas-M Laboratory, Ltd., Hong Kong, China). The reaction mixture (10 μL) included 25 mM sodium phosphate (pH 7.5), 1 mM dithiothreitol, 1 mM Na-EDTA, 50 nM ^32P-labeled substrate, 20 pM enzyme, and the inhibitors at 10, 100, and 1000 μM. The reaction was carried out for 10 min at 37 °C, terminated by adding NaOH to 100 mM and heating for 2 min at 95 °C, and neutralized by an equimolar amount of HCl. The mixture was supplemented with 5 μL of formamide dye (80% formamide, 20 mM Na-EDTA, 0.1% xylene cyanol, 0.1% bromophenol blue), and the reaction products were separated by gel electrophoresis in 20% polyacrylamide/7.2 M urea. The gels were visualized and quantified by phosphorimaging using the Typhoon FLA 9500 system (GE Healthcare, Chicago, IL, USA).

[2] = biological target: T2, vaccinia virus UNG (vvUNG, D4 protein) (Vaccinia virus, UniProt P20536); format: biochemical; conditions: at 100 μM
T2 construct: made in house

hUNG [3] = biological target: T1, hUNG; test: Inhibition mechanism determination, steady-state kinetics of substrate cleavage by hUNG; format: biochemical; conditions: for θ rel (Akaike’s relative likelihood of the model): best model’s likelihood taken for 1; for Vmax: fit in the presence of the inhibitor; for mode of inhibition: fit to competitive, uncompetitive and mixed models
Procedure: KM and Vmax parameters of the Michaelis–Menten scheme were determined at different inhibitor concentrations, and the results were analyzed by fitting to competitive, uncompetitive, and mixed inhibition models (Figure 3, Table 1). Akaike’s information criterion was used to compare the quality of fit under the models. […] The kinetic values reported for ssDNA cleavage by hUNG in the literature vary widely (0.22–13.8 μM for KM, 647–1060 min^−1 for kcat) yet generally agree with our data.
The reactions were performed as described above except that the substrate concentrations were 0.1, 0.3, 0.5, 0.7, 1, 3, 5, 7, and 10 μM, and the inhibitors concentrations were 0, 100, 300, 500, and 1000 μM. […] To determine the type of inhibition and calculate Ki, the data were fit to the competitive, uncompetitive, and mixed inhibition models using an R script.

HEK 293FT cells = test: Cell toxicity assay (MTT); format: cell-based, human; conditions: for EC50: Homo sapiens, HEK293FT, 72 h, read-out: effective concentration (toxicity)
Text: To assess the toxicity of UNG inhibitors for human cells, we have treated HEK293 cell line with the compounds 4B and 4F as the best inhibitors (Table 1). […] Since Ura preferentially accumulates in DNA from a dUTP pool, we have next tested the toxicity of these UNG inhibitors in the presence of MTX, which is an antimetabolite drug that inhibits dihydrofolate reductase, reduces the availability of tetrahydrofolate, and thus suppresses the conversion of […].
Figure 4 Cytotoxicity of UNG inhibitors. (a) Survival of HEK 293FT cells in the presence of the UNG inhibitors 4B and 4F (0.8–500 μM); (b) survival of HEK 293FT cells in the presence of MTX alone (0.02–10 μM) or 100 μM 4B plus MTX (0.1–10 μM); (c) survival of HEK 293FT cells in the presence of the UNG inhibitors 4B and 4F (0.8–500 μM) plus 0.1 μM MTX. In Panel C, the survival in the presence of 0.1 μM MTX alone is taken for 100%. Mean ± s. e. m. is shown (n = 3).
Human embryonic kidney cells (HEK 293FT) were from Thermo Fisher Scientific (Waltham, MA, USA; Cat. #R70007). The laboratory stock was regularly checked for the absence of mycoplasma contamination by PCR. Cells were grown in T25 cm^2 flasks in the complete medium (Dulbecco’s modified Eagle’s medium supplemented with 10% fetal bovine serum, 1 mM sodium pyruvate, 2 mM L-glutamine, and 1% penicillin–streptomycin–amphotericin B) as adherent monolayer cultures. The cultures were maintained at 37 °C in humidified atmosphere with 5% CO2. Cytotoxicity was determined by the colorimetric MTT (3-(4,5-dimethyl-2-thiazolyl)-2,5-diphenyl-2H-tetrazolium bromide) assay. The cells were harvested by trypsinization, seeded in the complete medium (100 μL per well) into 96-well plates at the density of 1.4×10^4 cells per well, and incubated for 24 h to settle and resume proliferation. MTX was dissolved in 1 M NaOH to 22 mM. […] After 15 min at room temperature to solubilize the formed formazan, A570 and A620 were measured with a Multiskan EX microplate reader (Thermo Fisher Scientific, Waltham, MA, USA). […]

947 human cell lines = conditions: read-out: median EC50; cited from earlier work
hUNG [4] = biological target: T1, hUNG; conditions: open (not DNA-bound) conformation; cited from earlier work
E. coli UNG = conditions: cited from earlier work
[5] = competitive model, read-out: Ki
[6] = uncompetitive model, read-out: Ki

SMILES | hUNG inhibition, dose response (hUNG [1]) | suppression of vvUNG activity [2] | θ rel (Akaike’s relative likelihood of the model) (hUNG [3]; competitive model) | Vmax (hUNG [3]; competitive model) | mode of inhibition (hUNG [3]) | θ rel (Akaike’s relative likelihood of the model) (hUNG [3]; uncompetitive model) | Vmax (hUNG [3]; uncompetitive model) | further results
Cc1ccc(C=C2C(=O)NC(=O)NC2=O)o1 [2D] | progressively lower substrate cleavage with the increasing inhibitor concentration | ≈ 50% | – | – | – | – | – | –
CN(C)c1ccc(C=C2C(=O)NC(=O)NC2=O)cc1 [3A] | progressively lower substrate cleavage with the increasing inhibitor concentration; also recorded: weak dose response | ≈ 50% | 0.655 | 0.029 ± 0.003 µM/min | the uncompetitive model was marginally better | best model | 0.034 ± 0.004 µM/min | Ki (hUNG [3]; Ki, competitive model): 530 ± 270 µM; Ki (hUNG [3]; Ki, uncompetitive model): 1300 ± 500 µM
O=C1NC(=O)C(=Cc2ccco2)C(=O)N1 [3B] | – | ≈ 50% | – | – | – | – | – | –
COc1ccc(C=C2C(=O)NC(=O)NC2=O)c(OC)c1 [4B] | progressively lower substrate cleavage with the increasing inhibitor concentration; also recorded: more pronounced dose response | ≈ 50% | best model | 0.019 ± 0.001 µM/min | clearly better described by the competitive inhibition model | 2.53 × 10^−5 | 0.024 ± 0.003 µM/min | IC50 (hUNG [1]): submillimolar range; IC50 (hUNG [1]; read-out: IC50): 100 to 1000 µM; Ki (hUNG [3]; [5]): 140 ± 40 µM; Ki (hUNG [3]; [6]): 550 ± 140 µM; EC50 (HEK 293FT cells): 69 ± 1 µM
Cc1ccc(C#N)c(SCc2cc(=O)[nH]c(=O)[nH]2)n1 [4E] | progressively lower substrate cleavage with the increasing inhibitor concentration | – | – | – | – | – | – | –
COc1cc(C=C2C(=O)NC(=O)NC2=O)cc(Cl)c1OC [4F] | progressively lower substrate cleavage with the increasing inhibitor concentration; also recorded: more pronounced dose response | – | 0.8 | 0.053 ± 0.014 µM/min | the uncompetitive model was marginally better | best model | 0.075 ± 0.028 µM/min | IC50 (hUNG [1]): submillimolar range; Ki (hUNG [3]; [5]): 200 ± 130 µM; Ki (hUNG [3]; [6]): 250 ± 140 µM; EC50 (HEK 293FT cells): 77 ± 1 µM
CC(Oc1ccc(C=C2C(=O)NC(=O)NC2=O)cc1)C(=O)O (centres unmarked) [4G] | progressively lower substrate cleavage with the increasing inhibitor concentration; also recorded: more pronounced dose response | – | best model | 0.042 ± 0.002 µM/min | clearly better described by the competitive inhibition model | 0.312 | 0.043 ± 0.003 µM/min | Ki (hUNG [3]; Ki, competitive model): 3300 ± 2300 µM; Ki (hUNG [3]; Ki, uncompetitive model): > 10000 µM
CN(Cc1cnc2nc(N)nc(N)c2n1)c1ccc(C(=O)N[C@@H](CCC(=O)O)C(=O)O)cc1 [MTX, methotrexate, reference compound] | – | – | – | – | – | – | – | EC50 (947 human cell lines): 0.595 µM; reduction in the cell viability (HEK 293FT cells; 0.1 μM MTX without the inhibitors): 20–25%
O=C(O)C1=CC(=C(c2ccc(O)c(C(=O)O)c2)c2ccc(O)c(C(=O)O)c2)C=CC1=O [aurintricarboxylic acid] | – | – | – | – | – | – | – | affinity (hUNG [4]): submicromolar affinity
CNC(C)C1CCC(N)C(OC2C(N)CC(N)C(OC3OCC(C)(O)C(NC)C3O)C2O)O1 (centres unmarked) [gentamicin] | – | – | – | – | – | – | – | IC50 (E. coli UNG): ~1000 µM
